Measured values: patent US7405240B2, “Substituted cyclopentanes or cyclopentanones as therapeutic agents” (Allergan, Inc., priority 2006, dated 2008)

Assays:
hEP2 [1] = molecular target: T1, hEP2 (Homo sapiens, UniProt P43116); test: cAMP assay, hEP2; assay type: cell-based
hEP2 [2] = molecular target: T1, hEP2; test: Competition binding, [3H]PGE2, human EP2 receptors; design: expressed in transfected cells; host or cells: HEK 293; settings: [3H]PGE2, HEK 293 cells stably expressing human EP2; read-out: hEP2 Ki
Protocol: Competition binding experiments were performed in a medium containing Hank's balanced salt solution, Hepes 20 mM, pH 7.3, membranes (˜60 μg protein) or 2×10^5 cells from HEK 293 cells stably expressing human EP2 receptors, [^3H]PGE2 (10 nM) and various concentrations of test compounds in a total volume of 300 μl. Reaction mixtures were incubated at 23° C. for 60 min, and were filtered over Whatman GF/B filters under vacuum. Filters were washed three times with 5 ml ice-cold buffer containing 50 mM Tris/HCl (pH 7.3). Non-specific binding was estimated in the presence of excess unlabeled PGE2 (10 μM). Binding data fitted to the binding model for a single class of binding sites, using nonlinear regression analysis. IC50 values thus obtained were converted to Ki using the equation of Ki=(IC50/(1+[L]/KD) where [L] represents PGE2 concentration (10 nM) and KD the dissociation constant for [^3H]PGE2 at human EP2 receptors (40 nM).
(§1) HEK-293 cells stably expressing the human or feline FP receptor, or EP1, EP2, or EP4 receptors were washed with TME buffer, scraped from the bottom of the flasks, and homogenized for 30 sec using a Brinkman PT 10/35 polytron. TME buffer was added to achieve a final 40 ml volume in the centrifuge tubes (the composition of TME is 100 mM TRIS base, 20 mM MgCl2, […]; 10N HCl is added to achieve a pH of 7.4).
(§2) The cell homogenate was centrifuged at 19000 r.p.m. for 20 min at 4° C. using a Beckman Ti-60 rotor. The resultant pellet was resuspended in TME buffer to give a final 1 mg/ml protein concentration, as determined by Biorad assay. Radioligand binding competition assays vs. [3H-] 17-phenyl PGF2, (5 nM) were performed in a 100 μl volume for 60 min. Binding reactions were started by adding plasma membrane fraction. The reaction was terminated by the addition of 4 ml ice-cold TRIS-HCl buffer and rapid filtration through glass fiber GF/B filters using a Brandel cell harvester. The filters were washed 3 times with ice-cold buffer and oven dried for one hour.
(§3) [^3H-] PGE2 (specific activity 180 Ci mmol) was used as the radioligand for EP receptors. [^3H] 17-phenyl PGF2, was employed for FP receptor binding studies. Binding studies employing EP1, EP2, EP4 and FP receptors were performed in duplicate in at least three separate experiments. A […] assay volume was used. Incubations were for 60 min at 25° C. and were terminated by the addition of 4 ml of ice-cold 50 mM TRIS-HCl, followed by rapid filtration through Whatman GF/B filters and three additional 4 ml washes in a cell harvester (Brandel). Competition studies were performed using a final concentration of 5 nM [^3H]-PGE2, or 5 nM [^3H] 17-phenyl PGF2, and non-specific binding determined with 10^−5M of unlabeled PGE2, or 17-phenyl PGF2α, according to receptor subtype studied.

hEP4 [3] = molecular target: T2, hEP4 (Homo sapiens, UniProt P35408); test: Radioligand binding, EP4 receptor; design: expressed in transfected cells; host or cells: HEK-293; settings: [3H]PGE2, HEK-293 cells expressing EP4
Protocol: as §1, §2, §3

hEP2 [4] = molecular target: T1, hEP2; test: FLIPR calcium signal, hEP2; assay type: cell-based; design: expressed in transfected cells; host or cells: HEK-293(EBNA); settings: HEK-293(EBNA) cells expressing hEP2/Gqs5
Protocol: (§4) Methods for FLIPR™ Studies
(§5) HEK-293(EBNA) cells, stably expressing one type or subtype of recombinant human prostaglandin receptors (prostaglandin receptors expressed: hDP/Gqs5; hEP1; hEP2/Gqs5; hEP3A/Gqi5; hEP4/Gqs5; hFP; hIP; hTP), were cultured in 100 mm culture dishes in high-glucose DMEM medium containing 10% fetal bovine serum, 2 mM 1-glutamine, 250 μg/ml geneticin (G418) and 200 μg/ml hygromycin B as selection markers, and 100 units/ml penicillin G, 100 μg/ml streptomycin and 0.25 μg/ml amphotericin B.
(§6) Cells were seeded at a density of 5×10^4 cells per well in Biocoat® Poly-D-lysine-coated black-wall, clear-bottom 96-well plates (Becton-Dickinson) and allowed to attach overnight in an incubator at 37° C. Cells were then washed two times with HBSS-HEPES buffer (Hanks Balanced Salt Solution without bicarbonate and phenol red, 20 mM HEPES, pH 7.4) using a Denley Cellwash plate washer (Labsystems). After 45 minutes of dye-loading in the dark, using the calcium-sensitive dye Fluo-4 AM at a final concentration of 2 μM, plates were washed four times with HBSS-HEPES buffer to remove excess dye leaving 100 μl in each well. Plates were re-equilibrated to 37° C. for a few minutes.
(§7) Cells were excited with an Argon laser at 488 nm, and emission was measured through a 510-570 nm bandwidth emission filter (FLIPR™, Molecular Devices, Sunnyvale, Calif.). Drug solution was added in a 50 μl volume to each well to give the desired final concentration. The peak increase in fluorescence intensity was recorded for each well. On each plate, four wells each served as negative (HBSS-HEPES buffer) and positive controls (standard agonists: BW245C (hDP); PGE2 (hEP1; hEP2/Gqs5; hEP3A/Gqi5; hEP4/Gqs5); PGF2α (hFP); carbacyclin (hIP); U-46619 (hTP), depending on receptor). The peak fluorescence change in each drug-containing well was then expressed relative to the controls.
(§8) Compounds were tested in a high-throughput (HTS) or concentration-response (CoRe) format. In the HTS format, forty-four compounds per plate were examined in duplicates at a concentration of 10^−5 M. To generate concentration-response curves, four compounds per plate were tested in duplicates in a concentration range between 10^−5 and 10^−11 M. The duplicate values were averaged. In either, HTS or CoRe format each compound was tested on at least 3 separate plates using cells from different passages to give an n≧3.

hEP4 [5] = molecular target: T2, hEP4; test: FLIPR calcium signal, hEP4; assay type: cell-based; design: expressed in transfected cells; host or cells: HEK-293(EBNA); settings: HEK-293(EBNA) cells expressing hEP4/Gqs5
Protocol: as §4, §5, §6, §7, §8

T2 sequence (P35408 whole entry): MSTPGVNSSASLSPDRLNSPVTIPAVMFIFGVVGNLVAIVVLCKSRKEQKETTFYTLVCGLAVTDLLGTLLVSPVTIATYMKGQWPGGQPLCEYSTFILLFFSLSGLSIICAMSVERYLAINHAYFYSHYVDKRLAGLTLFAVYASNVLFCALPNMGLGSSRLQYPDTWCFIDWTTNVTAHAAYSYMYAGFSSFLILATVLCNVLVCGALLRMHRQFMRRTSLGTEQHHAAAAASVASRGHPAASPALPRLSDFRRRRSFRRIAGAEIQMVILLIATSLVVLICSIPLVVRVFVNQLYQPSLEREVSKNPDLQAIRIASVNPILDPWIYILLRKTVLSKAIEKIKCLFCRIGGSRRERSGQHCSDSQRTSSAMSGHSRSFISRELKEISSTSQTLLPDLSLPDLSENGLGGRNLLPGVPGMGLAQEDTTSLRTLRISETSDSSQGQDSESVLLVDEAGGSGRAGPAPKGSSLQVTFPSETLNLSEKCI
T1 sequence (P43116 whole entry): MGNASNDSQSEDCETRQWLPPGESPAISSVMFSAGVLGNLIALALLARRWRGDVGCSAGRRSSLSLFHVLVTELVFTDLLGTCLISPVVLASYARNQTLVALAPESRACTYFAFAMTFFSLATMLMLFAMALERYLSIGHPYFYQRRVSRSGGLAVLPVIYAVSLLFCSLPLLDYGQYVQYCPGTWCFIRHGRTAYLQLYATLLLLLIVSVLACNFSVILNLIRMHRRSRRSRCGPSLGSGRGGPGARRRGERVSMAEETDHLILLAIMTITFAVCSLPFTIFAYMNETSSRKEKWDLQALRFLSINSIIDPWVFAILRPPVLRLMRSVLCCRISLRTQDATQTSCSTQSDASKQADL

SMILES | EC50 (hEP2 [1]) [nM] | Ki (hEP2 [2]) [nM] | Ki (hEP4 [3]) [nM] | EC50 (hEP2 [4]) [nM] | EC50 (hEP4 [5]) [nM]
Cc1cc(OC[C@@H]2[C@@H](C/C=C\CCCC(=O)O)[C@H](Cl)C[C@H]2O)cc(C)c1Cl [Example 39, (Z)-7-[(1R,2S,3R,5R)-5-Chloro-2-(4-chloro-3,5-dimethyl-phenoxymethyl)-3-hydroxy-cyclopentyl]-hept-5-enoic acid] | 0.7 | 11 | 281 | 10 | > 10000
O=C(O)CCC/C=C\C[C@@H]1[C@@H](COc2cc(C(F)(F)F)cc(Cl)c2F)[C@H](O)C[C@H]1Cl [Example 41, (Z)-7-[(1R,2S,3R,5R)-5-Chloro-2-(3-chloro-2-fluoro-5-trifluoromethyl-phenoxymethyl)-3-hydroxy-cyclopentyl]-hept-5-enoic acid] | 1.3 | 16 | 1710 | 13 | > 10000
CC(C)c1cccc(OC[C@@H]2[C@@H](C/C=C\CCCC(=O)O)[C@H](Cl)C[C@H]2O)c1 [Example 26, (Z)-7-[(1R,2S,3R,5R)-5-Chloro-3-hydroxy-2-(3-isopropyl-phenoxymethyl)-cyclopentyl]-hept-5-enoic acid] | 7 | 151 | 967 | 41 | 6500
Cc1cccc(OC[C@@H]2[C@@H](C/C=C\CCCC(=O)O)[C@H](Cl)C[C@H]2O)c1 [Example 25, (Z)-7-((1R,2S,3R,5R)-5-Chloro-3-hydroxy-2-m-tolyloxymethyl-cyclopentyl)-hept-5-enoic acid] | 9 | 155 | 1840 | 112 | 13000
Cc1ccc(OC[C@@H]2[C@@H](C/C=C\CCCC(=O)O)[C@H](Cl)C[C@H]2O)cc1C [Example 37, (Z)-7-[(1R,2S,3R,5R)-5-Chloro-2-(3,4-dimethyl-phenoxymethyl)-3-hydroxy-cyclopentyl]-hept-5-enoic acid] | 27 | 50 | 1100 | 618 | > 10000
Cc1cccc(OC[C@@H]2[C@@H](C/C=C\CCCC(=O)O)[C@H](Cl)C[C@H]2O)c1C [Example 32, (Z)-7-[(1R,2S,3R,5R)-5-Chloro-2-(2,3-dimethyl-phenoxymethyl)-3-hydroxy-cyclopentyl]-hept-5-enoic acid] | 3 | 122 | 1320 | 61 | > 10000
Cc1cc(OC[C@@H]2[C@@H](C/C=C\CCCC(=O)O)[C@H](Cl)C[C@H]2O)cc(C)c1C [Example 38, (Z)-7-[(1R,2S,3R,5R)-5-Chloro-3-hydroxy-2-(3,4,5-trimethyl-phenoxymethyl)-cyclopentyl]-hept-5-enoic acid] | 1.5 | 25 | 606 | 2.3 | > 10000
O=C(O)CCCCCC[C@@H]1[C@@H](COc2cc(C(F)(F)F)cc(C(F)(F)F)c2)[C@H](O)C[C@H]1Cl [Example 16, (Z)-7-[(1R,2S,3R,5R)-2-(3,5-Bis-trifluoromethyl-phenoxymethyl)-5-chloro-3-hydroxy-cyclopentyl]-heptanoic acid] | 40 | 45 | 4110 | 100 | 13100

Second part, the compound after the results:

EC50 (hEP2 [1]) [nM] | Ki (hEP2 [2]) [nM] | Ki (hEP4 [3]) [nM] | EC50 (hEP2 [4]) [nM] | EC50 (hEP4 [5]) [nM] | SMILES
1 | 86 | 1440 | 17 | 6970 | O=C(O)CCC/C=C\C[C@@H]1[C@@H](COc2cccc3c2CCCC3O)[C@H](O)C[C@H]1Cl (stereo partly drawn) [Example 60, (Z)-7-[(1R,2S,3R,5R)-5-Chloro-3-hydroxy-2-(5-hydroxy-5,6,7,8-tetrahydro-naphthalen-1-yloxymethyl)-cyclopentyl]-hept-5-enoic acid]
5 | 43 | > 10000 | 18 | 823 | O=C(O)CCC/C=C\C[C@@H]1[C@@H](COc2cccc(Cl)c2)[C@H](O)C[C@H]1Cl [Example 22, (Z)-7-[(1R,2S,3R,5R)-5-Chloro-2-(3-chloro-phenoxymethyl)-3-hydroxy-cyclopentyl]-hept-5-enoic acid]
225 | 4120 | 1520 | 9490 | 12300 | O=C(O)CCC/C=C\C[C@@H]1[C@@H](COc2ccccc2CO)[C@H](O)C[C@H]1Cl [Example 55, (Z)-7-[(1R,2S,3R,5R)-5-Chloro-3-hydroxy-2-(2-hydroxymethyl-phenoxymethyl)-cyclopentyl]-hept-5-enoic acid]
54 | 497 | 908 | 189 | 16000 | CC(C)(C)c1cccc(OC[C@@H]2[C@@H](C/C=C\CCCC(=O)O)[C@H](Cl)C[C@H]2O)c1 [Example 27, (Z)-7-[(1R,2S,3R,5R)-2-(3-tert-Butyl-phenoxymethyl)-5-chloro-3-hydroxy-cyclopentyl]-hept-5-enoic acid]
58 | 951 | > 10000 | 234 | > 10000 | CCCC(O)c1cccc(OC[C@@H]2[C@@H](C/C=C\CCCC(=O)O)[C@H](Cl)C[C@H]2O)c1 (stereo partly drawn) [Example 52, (Z)-7-{(1R,2S,3R,5R)-5-Chloro-3-hydroxy-2-[3-(1-hydroxy-butyl)-phenoxymethyl]-cyclopentyl}-hept-5-enoic acid]
10 | 32 | 3220 | 45 | 2860 | O=C(O)CCC/C=C\C[C@@H]1[C@@H](COc2ccc(Cl)cc2)[C@H](O)C[C@H]1Cl [Example 23, (Z)-7-[(1R,2S,3R,5R)-5-Chloro-2-(4-chloro-phenoxymethyl)-3-hydroxy-cyclopentyl]-hept-5-enoic acid]
